Reference: ChEMBL document CHEMBL3779874, “Pyridones as Highly Selective, Noncovalent Inhibitors of T790M Double Mutants of EGFR” (ACS Med Chem Lett, 2016)
Converted amounts (≈) assume the structure as drawn. The source made the active and inactive calls. No cut-off for these calls is given here.

Legend:
[1] = species on record: Homo sapiens; experiment: Selectivity ratio of Ki(app) for human N-terminal GST-tagged EGFR catalytic domain (669 to 1210 residues) expressed in baculovirus expression system to Ki(app) for human EGFR catalytic domain (668 to 1210 residues) T790M/L858R double mutant
[2] = molecular target: Epidermal growth factor receptor (Homo sapiens, UniProt P00533); experiment: Inhibition of human N-terminal GST-tagged EGFR catalytic domain (669 to 1210 residues) expressed in baculovirus expression system using Fl-EEPLYWSFPAKKK-CONH2 peptide substrate preincubated for 30 mins followed by substrate addition measured after 30 mins by Caliper Mobility Shift Assay; details: read-out: Ki(app)
Sequence of Epidermal growth factor receptor (Homo sapiens, UniProt P00533) (P00533 whole entry, the tested form may be a part): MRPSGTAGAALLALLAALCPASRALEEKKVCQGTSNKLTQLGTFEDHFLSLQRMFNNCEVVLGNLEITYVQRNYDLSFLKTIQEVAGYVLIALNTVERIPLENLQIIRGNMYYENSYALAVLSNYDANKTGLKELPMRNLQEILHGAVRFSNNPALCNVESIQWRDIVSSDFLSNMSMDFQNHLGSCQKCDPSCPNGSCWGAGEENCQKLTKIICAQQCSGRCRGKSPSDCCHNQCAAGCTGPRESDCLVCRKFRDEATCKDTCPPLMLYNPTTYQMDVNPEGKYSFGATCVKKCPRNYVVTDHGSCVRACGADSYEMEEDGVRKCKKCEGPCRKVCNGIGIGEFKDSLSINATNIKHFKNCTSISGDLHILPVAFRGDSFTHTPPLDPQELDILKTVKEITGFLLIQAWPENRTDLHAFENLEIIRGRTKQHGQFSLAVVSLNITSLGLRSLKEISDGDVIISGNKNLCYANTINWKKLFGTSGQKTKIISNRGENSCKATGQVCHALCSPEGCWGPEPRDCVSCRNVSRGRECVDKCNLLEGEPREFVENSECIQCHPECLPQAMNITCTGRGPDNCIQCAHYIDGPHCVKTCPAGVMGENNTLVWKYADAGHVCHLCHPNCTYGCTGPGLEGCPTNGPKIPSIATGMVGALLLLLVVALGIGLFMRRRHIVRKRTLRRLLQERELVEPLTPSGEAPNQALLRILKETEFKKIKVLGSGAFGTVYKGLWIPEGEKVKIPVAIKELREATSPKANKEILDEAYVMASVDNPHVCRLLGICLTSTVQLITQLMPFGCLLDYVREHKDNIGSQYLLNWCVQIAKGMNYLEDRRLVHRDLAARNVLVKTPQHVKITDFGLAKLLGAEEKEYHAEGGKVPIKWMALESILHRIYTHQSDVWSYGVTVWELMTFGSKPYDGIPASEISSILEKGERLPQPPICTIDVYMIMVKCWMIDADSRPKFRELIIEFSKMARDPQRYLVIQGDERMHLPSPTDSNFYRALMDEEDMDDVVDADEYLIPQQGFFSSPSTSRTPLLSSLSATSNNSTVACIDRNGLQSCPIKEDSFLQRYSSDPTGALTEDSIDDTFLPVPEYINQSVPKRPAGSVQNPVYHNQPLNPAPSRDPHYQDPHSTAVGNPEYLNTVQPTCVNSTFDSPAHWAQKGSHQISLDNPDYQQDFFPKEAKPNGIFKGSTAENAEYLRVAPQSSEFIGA

[3] = Lipophilicity, log D of compound at pH 7.4; type: physicochemical; details: buffer
[4] = molecular target: T1, Epidermal growth factor receptor (Homo sapiens, UniProt P00533, L858R/T790M); experiment: Inhibition of human EGFR catalytic domain (668 to 1210 residues) T790M/L858R double mutant using Fl-EEPLYWSFPAKKK-CONH2 peptide substrate preincubated for 30 mins followed by substrate addition measured after 30 mins by Caliper Mobility Shift Assay; type: protein assay; details: read-out: Ki(app)
[5] = Kinetic solubility of compound in pH7.4 DMSO/phosphate buffered saline after 24 hrs by chemiluminescent nitrogen detection method; type: physicochemical; details: pH 7.4, read-out: Kinetic_solubility
[6] = molecular target: T1, Epidermal growth factor receptor; experiment: Inhibition of EGFR T790M/L858R double mutant phosphorylation in human H1975 cells preincubated for 1 hr followed by EGF stimulation for 8 mins by electrochemiluminescent immunoassay; type: cell-based
[7] = tested on: H1975; experiment: Ratio of EC50 for wild type EGFR phosphorylation in human H292 cells to EC50 for EGFR T790M/L858R double mutant phosphorylation in human H1975 cells; type: cell-based
[8] = species on record: Homo sapiens; experiment: Selectivity ratio of Ki(app) for JAK1 (unknown origin) to Ki(app) for human EGFR catalytic domain (668 to 1210 residues) T790M/L858R double mutant
[9] = species on record: Homo sapiens; experiment: Selectivity ratio of Ki(app) for JAK2 (unknown origin) to Ki(app) for human EGFR catalytic domain (668 to 1210 residues) T790M/L858R double mutant
[10] = molecular target: T2, Tyrosine-protein kinase JAK2 (Homo sapiens, UniProt O60674); experiment: Inhibition of JAK2 (unknown origin) at 1 uM
T2 sequence (O60674 whole entry): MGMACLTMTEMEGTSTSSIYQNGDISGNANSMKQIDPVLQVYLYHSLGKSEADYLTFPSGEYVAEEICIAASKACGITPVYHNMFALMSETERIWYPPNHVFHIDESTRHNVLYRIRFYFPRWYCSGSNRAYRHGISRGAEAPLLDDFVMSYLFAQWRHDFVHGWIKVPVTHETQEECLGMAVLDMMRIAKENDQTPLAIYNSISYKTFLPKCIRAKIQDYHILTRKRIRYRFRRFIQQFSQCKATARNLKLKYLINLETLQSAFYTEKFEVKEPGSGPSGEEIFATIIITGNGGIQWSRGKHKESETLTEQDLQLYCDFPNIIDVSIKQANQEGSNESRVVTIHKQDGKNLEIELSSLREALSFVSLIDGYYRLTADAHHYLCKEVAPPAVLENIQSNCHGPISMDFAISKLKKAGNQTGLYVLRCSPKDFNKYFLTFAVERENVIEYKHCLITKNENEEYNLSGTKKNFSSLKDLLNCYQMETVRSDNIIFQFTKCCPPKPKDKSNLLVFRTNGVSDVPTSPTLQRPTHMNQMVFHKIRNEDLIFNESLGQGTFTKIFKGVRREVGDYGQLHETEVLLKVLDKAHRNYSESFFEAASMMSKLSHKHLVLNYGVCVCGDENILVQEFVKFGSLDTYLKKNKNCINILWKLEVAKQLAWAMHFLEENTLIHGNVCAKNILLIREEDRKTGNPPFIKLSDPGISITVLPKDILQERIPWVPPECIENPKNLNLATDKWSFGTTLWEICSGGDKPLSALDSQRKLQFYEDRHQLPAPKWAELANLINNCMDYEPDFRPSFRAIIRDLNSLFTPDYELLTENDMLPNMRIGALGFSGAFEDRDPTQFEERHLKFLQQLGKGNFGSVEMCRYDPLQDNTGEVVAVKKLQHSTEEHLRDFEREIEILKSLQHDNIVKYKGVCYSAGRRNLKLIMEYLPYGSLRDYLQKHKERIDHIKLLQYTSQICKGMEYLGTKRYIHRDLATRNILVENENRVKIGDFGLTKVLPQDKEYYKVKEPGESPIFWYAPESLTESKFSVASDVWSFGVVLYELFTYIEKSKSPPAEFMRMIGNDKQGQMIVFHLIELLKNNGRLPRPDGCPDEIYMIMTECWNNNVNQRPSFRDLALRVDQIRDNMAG

[11] = molecular target: T2, Tyrosine-protein kinase JAK2; experiment: Inhibition of JAK2 (unknown origin); details: read-out: Ki(app)
[12] = species on record: Homo sapiens; experiment: Selectivity ratio of Ki(app) for JAK1 (unknown origin) to Ki(app) for JAK2 (unknown origin)
[13] = molecular target: Tyrosine-protein kinase JAK1 (Homo sapiens, UniProt P23458); experiment: Inhibition of JAK1 (unknown origin); details: read-out: Ki(app)
Sequence of Tyrosine-protein kinase JAK1 (P23458 whole entry): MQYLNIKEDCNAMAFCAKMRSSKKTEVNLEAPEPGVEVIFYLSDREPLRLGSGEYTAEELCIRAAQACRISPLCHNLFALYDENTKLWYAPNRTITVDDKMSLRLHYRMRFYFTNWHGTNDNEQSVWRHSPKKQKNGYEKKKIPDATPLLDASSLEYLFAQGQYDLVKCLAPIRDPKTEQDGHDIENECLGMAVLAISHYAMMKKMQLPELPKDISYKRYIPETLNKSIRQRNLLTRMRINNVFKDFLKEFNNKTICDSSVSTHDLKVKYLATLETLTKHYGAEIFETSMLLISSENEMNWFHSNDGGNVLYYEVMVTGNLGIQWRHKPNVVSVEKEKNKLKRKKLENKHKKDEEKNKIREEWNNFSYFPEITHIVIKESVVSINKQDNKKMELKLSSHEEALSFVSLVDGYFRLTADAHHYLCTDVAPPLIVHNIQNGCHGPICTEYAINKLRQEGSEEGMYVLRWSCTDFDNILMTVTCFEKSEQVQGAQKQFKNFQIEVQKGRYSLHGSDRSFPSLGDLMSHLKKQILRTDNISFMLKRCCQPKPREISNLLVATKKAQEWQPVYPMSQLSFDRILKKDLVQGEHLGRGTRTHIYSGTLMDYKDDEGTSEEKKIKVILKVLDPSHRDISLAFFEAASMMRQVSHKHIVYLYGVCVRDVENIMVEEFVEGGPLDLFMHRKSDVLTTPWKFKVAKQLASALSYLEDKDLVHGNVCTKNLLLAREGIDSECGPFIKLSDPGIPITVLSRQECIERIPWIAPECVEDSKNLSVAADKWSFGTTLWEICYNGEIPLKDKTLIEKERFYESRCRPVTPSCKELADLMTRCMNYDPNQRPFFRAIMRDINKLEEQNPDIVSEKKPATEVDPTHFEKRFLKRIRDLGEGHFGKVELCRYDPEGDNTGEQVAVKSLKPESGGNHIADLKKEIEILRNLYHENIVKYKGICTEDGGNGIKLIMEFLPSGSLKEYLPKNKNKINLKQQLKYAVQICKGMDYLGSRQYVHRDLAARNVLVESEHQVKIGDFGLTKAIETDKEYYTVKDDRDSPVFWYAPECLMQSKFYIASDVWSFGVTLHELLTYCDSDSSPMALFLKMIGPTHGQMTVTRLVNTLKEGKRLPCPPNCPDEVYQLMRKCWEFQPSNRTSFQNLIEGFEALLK

Row | Structure (SMILES) | Ratio Ki(app) [1] | Ki [2] | Ki [4] | further results
1 | COc1ccccc1Nc1cc[nH]c(=O)c1C(=O)Nc1ccc(N2CCN(C)CC2)nc1 | > 33 | > 2500 nM | 78 nM | logD [3]: 2.6; solubility kinetic at 24 h [5]: 65 µM (≈ 28.2 µg/mL)
2 | Cc1ccccc1Nc1cc[nH]c(=O)c1C(=O)Nc1ccc(N2CCN(C)CC2)cc1 | 38 | 2340 nM | 61 nM | 
3 | CN1CCN(c2ccc(NC(=O)c3c(Nc4ccncn4)cc[nH]c3=O)cc2)CC1 | > 27 | > 2540 nM | 95 nM | 
4 | COc1ccccc1Nc1cc[nH]c(=O)c1C(=O)Nc1ccc(N2CCCN(C)CC2)cc1 | 57 | 705 nM | 12 nM | 
5 | COc1ccccc1Nc1cc[nH]c(=O)c1C(=O)Nc1ccc(N2CCS(=O)(=O)CC2)cc1 | > 34 | > 1300 nM | 37 nM | 
6 | COc1ccccc1Nc1cc[nH]c(=O)c1C(=O)Nc1ccc(C2CCN(C)CC2)cc1 | 29 | 634 nM | 15 nM | EC50 [6]: 433 nM; Ratio EC50 [7]: > 23; logD [3]: 2.7; solubility kinetic at 24 h [5]: 61 µM (≈ 26.4 µg/mL)
7 | COc1ccccc1Nc1cc[nH]c(=O)c1C(=O)Nc1ccc(CN2CCN(C)CC2)cc1 | 22 | 1200 nM | 51 nM | 
8 | COc1ccccc1Nc1cc[nH]c(=O)c1-c1nc2c(C(C)C)ccc(C)c2[nH]1 | 27 |  | 88 nM | Ratio Ki(app) [8]: 6; Ratio Ki(app) [9]: 0.3
9 | CN1CCN(c2ccc(NC(=O)c3c(NCc4ccccc4)cc[nH]c3=O)cc2)CC1 | 1 | 349 nM | 350 nM | 
10 | CN1CCN(c2ccc(NC(=O)c3c(NCCc4ccccc4)cc[nH]c3=O)cc2)CC1 | < 1 | 49 nM | 117 nM | 
11 | CN1CCN(c2ccc(NC(=O)c3c(Nc4ccncc4N)cc[nH]c3=O)cc2)CC1 | > 8 | > 1230 nM | 145 nM | 
12 | CN1CCN(c2ccc(NC(=O)c3c(Nc4cccc(Cl)c4)cc[nH]c3=O)cc2)CC1 | 16 | 2520 nM | 155 nM | 
13 | CN1CCN(c2ccc(NC(=O)c3c(Nc4ccccc4)cc[nH]c3=O)cc2)CC1 | > 18 | > 2540 nM | 144 nM | 
14 | CN(C)c1ccc(NC(=O)c2c(NCCc3cccc(Cl)c3)cc[nH]c2=O)cc1 | 1 | 757 nM | 290 nM | 
15 | CN1CCN(c2ccc(NC(=O)c3c(NCCc4ccc(Cl)cc4)cc[nH]c3=O)cc2)CC1 | < 1 | 37 nM | 262 nM | 
16 | CN1CCN(c2ccc(NC(=O)c3c(Nc4ccnc(N)n4)cc[nH]c3=O)cc2)CC1 | 213 | 850 nM | 4 nM | Ratio Ki(app) [8]: 3; inhibition [10]: Active; Ratio Ki(app) [9]: 2

Row | Structure (SMILES) | Ratio Ki(app) [1] | Ki [2] | Ki [4] | further results
17 | COc1ccccc1N(C)c1cc[nH]c(=O)c1C(=O)Nc1ccc(N2CCN(C)CC2)cc1 | 1 | > 2540 nM | > 2060 nM | 
18 | COc1ccccc1Nc1cc[nH]c(=O)c1C(N)=O | > 3.6 | > 2500 nM | > 688 nM | 
19 | CN1CCN(c2ccc(NC(=O)c3c(NC[C@@H](O)c4cccc(Cl)c4)cc[nH]c3=O)cc2)CC1 | < 1 | 18 nM | 65 nM | EC50 [6]: 412 nM; solubility kinetic at 24 h [5]: 11 µM (≈ 5.3 µg/mL)
20 | COc1ccccc1Nc1cc[nH]c(=O)c1C(=O)Nc1ccc(N2CCC(C)CC2)cc1 | > 4.1 | > 2500 nM | 625 nM | 
21 | CN1CCN(c2ccc(NC(=O)c3c(N)cc[nH]c3=O)cc2)CC1 | > 7 | > 2540 nM | 346 nM | 
22 | COc1ccccc1Nc1cc[nH]c(=O)c1C(=O)Nc1ccc(N2CCN(C)CC2)cn1 | 1 | > 2500 nM | > 2060 nM | 
23 | O=C(Nc1ccccc1)c1c(NCCc2cccc(Cl)c2)cc[nH]c1=O | 2 | 1210 nM | 330 nM | 
24 | CCc1cc(NC(=O)c2c(Nc3ccccc3OC)cc[nH]c2=O)ccc1N1CCN(C)CC1 | > 80 |  | 31 nM | Ratio Ki(app) [8]: 104; Ratio Ki(app) [9]: 4
25 | CN1CCN(c2ccc(NC(=O)c3c(NCCc4cccc(Cl)c4)cc[nH]c3=O)cc2)CC1 | 1 | 43 nM | 66 nM | 
26 | COc1ccccc1Nc1cc[nH]c(=O)c1-c1nc2c(C(C)C)cccc2[nH]1 | 42 | 2400 nM | 58 nM | Ratio Ki(app) [8]: 2; Ratio Ki(app) [9]: 0.2
27 | CN1CCN(c2ccc(NC(=O)c3c(Nc4ccccc4Cl)cc[nH]c3=O)cc2)CC1 | 18 | 1480 nM | 82 nM | 
28 | CN1CCN(c2ccc(NC(=O)c3c(Nc4ccccn4)cc[nH]c3=O)cc2)CC1 | > 24 | > 2540 nM | 108 nM | 
29 | CN1CCN(c2ccc(NC(=O)c3c(Nc4ccc(Cl)cc4)cc[nH]c3=O)cc2)CC1 | > 4 | > 2540 nM | 629 nM | 
30 | COc1ccccc1Nc1cc[nH]c(=O)c1C(=O)Nc1ccc(N2CCN(C)CC2)c(C)c1 | 16 |  | 26 nM | Ratio Ki(app) [8]: 42; Ratio Ki(app) [9]: 0.9
31 | COc1ccccc1Nc1cc[nH]c(=O)c1C(=O)Nc1ccc(N2CCN(C)CC2)cc1 | 58 | 1090 nM | 19 nM | Ki [11]: 9 nM; Ratio Ki(app) [8]: 9; inhibition [10]: Active; EC50 [6]: 1090 nM; Ratio Ki(app) [12]: 10; Ratio EC50 [7]: 5; logD [3]: 3.5; Ki [13]: 172 nM; solubility kinetic at 24 h [5]: 4 µM (≈ 1.73 µg/mL); Ratio Ki(app) [9]: 0.5
